Measured values: US20250042864A1, “SOLID STATE FORM OF TAFAMIDIS” (TEVA PHARMACEUTICALS INTERNATIONAL GMBH, priority 2021, published 2025)
Converted amounts (≈) assume the structure as drawn.

Key:
Assay type in all cases: physicochemical
[1] = water solubility of crystalline forms of tafamidis
[2] = particle size / morphology of crystalline forms; conditions: morphology comparison of crystalline forms
[3] = stability to suspension (slurry) in PEG 400 at room temperature, analysed by XRPD; conditions: slurry in PEG 400, room temperature, XRPD (FIG. 6)
Description: 50 mg of samples of Form Va and Form 4 were placed into glass vials. 1 ml of PEG 400 was added at room temperature. The slurries were each mixed using a magnetic stirrer. The resulting samples were analysed by XRPD after 2 hours and after 7 days.

water solubility [1] | particle size [2] | time for which the form is stable in PEG 400 slurry [3] | solubility [1] | SMILES
1.47 µg/mL (≈ 4.77 µM) | – | – | – | O=C(O)c1ccc2nc(-c3cc(Cl)cc(Cl)c3)oc2c1 [Form V, 2-(3,5-dichlorophenyl)-1,3-benzoxazole-6-carboxylic acid]
– | > 100 μm | – | – | O=C(O)c1ccc2nc(-c3cc(Cl)cc(Cl)c3)oc2c1 [Form 6, 2-(3,5-dichlorophenyl)-1,3-benzoxazole-6-carboxylic acid]
– | up to 100 μm | – | – | O=C(O)c1ccc2nc(-c3cc(Cl)cc(Cl)c3)oc2c1 [Form 1, 2-(3,5-dichlorophenyl)-1,3-benzoxazole-6-carboxylic acid]
– | 5-10 μm | at least 7 days | 2.21 µg/mL (≈ 7.17 µM) | O=C(O)c1ccc2nc(-c3cc(Cl)cc(Cl)c3)oc2c1 [Form Va, 2-(3,5-dichlorophenyl)-1,3-benzoxazole-6-carboxylic acid]
